From ChEMBL document CHEMBL3392926, “Antiprotozoal Activity Profiling of Approved Drugs: A Starting Point toward Drug Repositioning”
Several values for one entry are separate records, joined by “and”; a condition that tells them apart may be missing. Equal entries are not always repeated.

How the values were obtained:
Trypanosoma cruzi = test: microbe, parasite or virus in culture; format: functional, organism-based, Tulahuen C4 (LacZ); conditions: Trypanosoma cruzi, Tulahuen C4 (LacZ), 96 h
cells [1] = format: functional, cell-based; conditions: Rattus norvegicus, L6, 72 h
cells [2] = format: functional, cell-based; conditions: Mus musculus, NMRI, BalbC or CD1 mice, Macrophage, 96 h
[3] = DNDI: Cytotoxicity in Vitro, 96 hour, in primary peritoneal mouse macrophages; format: functional, cell-based; conditions: Macrophage
[4] = system: Trypanosoma brucei rhodesiense; test: microbe, parasite or virus in culture; format: functional, organism-based, STIB 900; conditions: Trypanosoma brucei, STIB 900, 72 h
Leishmania donovani [5] = test: microbe, parasite or virus in culture; format: functional, organism-based, MHOM/ET/67/L82
Leishmania donovani [6] = test: microbe, parasite or virus in culture; format: functional, organism-based, MHOM/ET/67/L82; remark: listed apart in the source
Plasmodium falciparum = test: microbe, parasite or virus in culture; format: functional, organism-based, K1
[7] = Leishmania donovani, MHOM/ET/67/L82, 72 h
[8] = Leishmania donovani, MHOM/ET/67/L82, 96 h
[9] = Plasmodium falciparum, K1, 72 h

IC50 (Trypanosoma cruzi)	IC50 (cells [1])	IC50 (cells [2])	IC50 [4]	IC50 (Leishmania donovani [5]; [7])	IC50 (Leishmania donovani [6]; [8])	IC50 (Plasmodium falciparum; [9])	IC50 (Leishmania donovani [5])	IC50 (Leishmania donovani [6])	IC50 (Plasmodium falciparum)	Compound	IC50 [3]
17.9 µM	43.2 µM	> 38.6 µM	4.78 µM	48.6 µM	28.2 µM					COc1cc(N[C@H](C)CCCN)c2ncccc2c1	39.7 µM
0.19 µM	87 µM	> 34.8 µM	1.44 µM	2.76 µM	20.7 µM					CC1CS(=O)(=O)CCC1/N=N/c1ccc([N+](=O)[O-])o1 (configuration not stated)	15.7 µM
56.7 µM	10.3 µM	32.4 µM	0.76 µM	0.34 µM	0.31 µM	0.8 µM				C[C@@H]1[C@H](O)[C@@H](C)/C=C/C=C/C=C/C=C/C=C/C=C/C=C/[C@H](O[C@@H]2O[C@H](O)[C@@H](O)[C@H](N)[C@@H]2O)C[C@@H]2O[C@](O)(C[C@@H](O)C[C@@H](O)[C@H](O)CC[C@@H](O)C[C@@H](O)CC(=O)O[C@H]1C)C[C@H](O)[C@H]2C(=O)O	22.4 µM
2.49 µM	1.04 µM	> 11.2 µM	0.8 µM	1.64 µM	9.09 µM	3.75 µM				Cc1cc(C2CCCCC2)n(O)c(=O)c1 [CICLOPIROX OLAMINE]	20.3 µM
38.2 µM	9.97 µM	6.34 µM	7.63 µM	22.4 µM	0.95 µM	4.1 µM				CC(C)/N=c1\cc2n(-c3ccc(Cl)cc3)c3ccccc3nc-2cc1Nc1ccc(Cl)cc1 [CLOFAZIMINE]	10.7 µM
	2.99 µM	87 µM								Clc1ccccc1C(c1ccccc1)(c1ccccc1)n1ccnc1 [CLOTRIMAZOLE]	32.5 µM
	15.6 µM	67.6 µM								Clc1ccc(COC(Cn2ccnc2)c2ccc(Cl)cc2Cl)cc1 (configuration not stated) [ECONAZOLE]	22.8 µM
	15.4 µM	62.7 µM								Clc1ccc(COC(Cn2ccnc2)c2ccc(Cl)cc2Cl)c(Cl)c1 (configuration not stated) [MICONAZOLE]	23.9 µM
4.44 µM	8.87 µM	> 29.4 µM	0.01 µM	19.8 µM						N=C(N)c1ccc(OCCCCCOc2ccc(C(=N)N)cc2)cc1 [PENTAMIDINE]	7.78 µM
22 µM	32.3 µM	> 29.1 µM	7.39 µM	13.7 µM	19.5 µM	0.08 µM				CCN(CC)CCCCCCNc1cc(OC)cc2c(C)ccnc12 [SITAMAQUINE]	21.4 µM
					> 7.74 µM	1.07 µM	22.4 µM and 9.26 µM	13.1 µM	0.63 µM	Clc1ccc(C(Cn2ccnc2)OCc2ccsc2Cl)c(Cl)c1 (configuration not stated) [TIOCONAZOLE]	51.1 µM
20 µM	84.6 µM	> 97.6 µM	69.3 µM	4.33 µM	50.1 µM	19 µM				Cc1cccc(N(C)C(=S)Oc2ccc3ccccc3c2)c1 [TOLNAFTATE]	
10.1 µM	11 µM	24.5 µM	1.23 µM	52.9 µM	> 7.36 µM	1.48 µM				CN1CCN(CCCN2c3ccccc3Sc3ccc(C(F)(F)F)cc32)CC1 [TRIFLUOPERAZINE]	
15 µM	18.5 µM	28.4 µM	1.42 µM	79.8 µM	> 8.51 µM	2.72 µM				CN(C)CCCN1c2ccccc2Sc2ccc(C(F)(F)F)cc21 [TRIFLUPROMAZINE]	
32.6 µM	80.6 µM	> 67.9 µM	59.3 µM	4.26 µM	> 67.9 µM	7.27 µM				Cc1c(C)c2c(c(C)c1O)CCC(C)(COc1ccc(CC3SC(=O)NC3=O)cc1)O2 (configuration not stated) [TROGLITAZONE]	

Compound	IC50 (Trypanosoma cruzi)	IC50 (cells [1])	IC50 (cells [2])	IC50 [4]	IC50 (Leishmania donovani [5]; [7])	IC50 (Leishmania donovani [6]; [8])	IC50 (Plasmodium falciparum; [9])	IC50 (Leishmania donovani [5])	IC50 (Leishmania donovani [6])	IC50 (Plasmodium falciparum)	IC50 [3]
C[C@@H](c1ncncc1F)[C@](O)(Cn1cncn1)c1ccc(F)cc1F [VORICONAZOLE]	11.2 µM	195 µM	> 85.9 µM	> 286 µM	> 286 µM	> 85.9 µM	> 143 µM				
